Like-named read-outs stand apart in the source and are kept apart here.
Experiments:
[1] = biological target: human recombinant FGFR1 catalytic structural domain protein (Homo sapiens (Human), UniProt P11362); assay: FGFR1 activity inhibition test (HTRF kinase assay); assay type: biochemical; settings: 40 μM ATP
Description: FGFR1 Activity Inhibition Test
The influence of the compound according to the present invention on the activity of fibroblast growth factor receptor 1 (FGFR1) was evaluated by an in vitro kinase assay experiment.
(§1) The experimental method is summarized as follows:
The in vitro activity of FGFR1 was determined by assaying the phosphorylation level of the substrate in the kinase reaction, by means of an HTRF kinase assay kit.
(§2) If the IC50 value of the compound was very low, the initial concentration of the compound could be reduced.
(§3) After 60 min, the enzyme reaction was terminated by EDTA in the assay solution, and the phosphorylated products were identified by both the Eu^3+ labeled cage-shaped antibody (donor) and the streptavidin labeled XL665 antibody (receptor) at the same time. […] The inhibition percentage of the compound against FGFR1 activity could be calculated with the following formula: Inhibition percentage=100−100*(signalcompound−signalnegative control)/(signalpositive control−signalnegative control)
The IC50 value of the compound was calculated by the following formula, from 10 concentration points, with XLfit (ID Business Solutions Ltd., UK): Y=Bottom+(Top−Bottom)/(1+10^((Log IC50−X)*slope factor))
(§4) Where, Y is the inhibition percentage, Bottom is the bottom plateau of the curve (the bottom plateau of the S-type curve), Top is the top plateau of the curve (the top plateau of the S-type curve), and X is the log value of the compound concentration to be measured.

[2] = biological target: human recombinant FGFR4 catalytic structural domain protein (Homo sapiens (Human), UniProt P22455); assay: FGFR4 activity inhibition test (HTRF kinase assay); assay type: biochemical; settings: 90 μM ATP
Sequence of human recombinant FGFR4 catalytic structural domain protein (P22455 460-802): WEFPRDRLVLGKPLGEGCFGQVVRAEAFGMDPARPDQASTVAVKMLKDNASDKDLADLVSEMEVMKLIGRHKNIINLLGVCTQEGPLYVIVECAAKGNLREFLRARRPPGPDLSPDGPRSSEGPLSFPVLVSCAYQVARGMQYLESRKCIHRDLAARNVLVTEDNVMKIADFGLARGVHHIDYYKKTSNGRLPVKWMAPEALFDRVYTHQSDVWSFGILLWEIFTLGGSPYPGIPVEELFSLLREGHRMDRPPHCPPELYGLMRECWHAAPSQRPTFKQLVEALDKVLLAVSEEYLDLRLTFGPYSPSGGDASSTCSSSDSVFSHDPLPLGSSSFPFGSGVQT
Description: FGFR4 Activity Inhibition Test
The influence of the compound according to the present invention on the activity of fibroblast growth factor receptor 4 (FGFR4) was evaluated by an in vitro kinase assay experiment.
as §1
The in vitro activity of FGFR4 was determined by assaying the phosphorylation level of the substrate in the kinase reaction, by means of an HTRF kinase assay kit.
as §2
as §3, with “FGFR4” for “FGFR1”
The IC50 value of the compound was calculated by the following formula, from 10 concentration points, with XLfit (ID Business Solutions Ltd., UK): Y=Bottom+(Top−Bottom)/(1+10^((Log IC50−X)*slope factor)) Where, Y is the inhibition percentage, Bottom is the bottom plateau of the curve (the bottom plateau of the S-type curve), Top is the top plateau of the curve (the top plateau of the S-type curve), and X is the log value of the compound concentration to be measured.

Hep3B cells = assay: Hep3B cell proliferation inhibition test (CellTiter-Glo); assay type: cell-based; settings: Homo sapiens, 72 h, CTG
Description: Hep3B Cell Proliferation Inhibition Test
The influence of the compound according to the present invention on Hep3B cell proliferation was evaluated by a luminescence cell viability test.
as §1
A CellTilter-Glo (CTG) assay kit was used to detect an indicator ATP of active cellular metabolism by means of a unique stable luciferase, and the luminous signal produced in the test was in direct proportion to the count of active cells in the medium, thereby to detect the cell proliferation of Hep3B.
A CellTilter-Glo agent (Promega, G7572) was comprised of a CellTilter-Glo lyophilized powder and a CellTilter-Glo buffer, and the lyophilized powder was dissolved into the buffer in use.
Hep3B cells (ATCC, HB-8064) (cell source: Shanghai Academy of Life Sciences, Chinese Academy of Sciences) were cultured in a DMEM complete medium (Thermofisher, 11995073) containing a 10% FBS (GBICO, 10099-141) and 100 units/ml mycillin mixed solution (Thermofisher, 15140122). When the cells coverage reached 80-90% in the culture vessel, after the cells were digested and blown about with 0.25% pancreatin (containing EDTA) (Thermofisher, 25200056), they were planted in a white 384 well plate (Thermofisher, 164610), with 1000 cells in each well (27 μl of a DMEM complete medium), and then the 384 well plate was placed into an incubator at 37° C. and 5% CO2 and cultured overnight (18-20 h). The compound was dissolved and diluted in 100% DMSO to 100 μM, then 4-fold-series diluted with DMSO to a minimum concentration of 0.0061 μM, and each concentration point was 50-fold diluted with the FBS-free DMEM medium. If the IC50 value of the compound was very low, the initial concentration of the compound could be reduced. […] This 384 well plate was placed into an incubator at 37° C. and 5% CO2 for further culture, taken out after 72 h, and stood at room temperature for 30 min. The CTG agent was also taken out and balanced to room temperature. 15 μl of the CTG agent was added into each well, and placed onto a shaker to be gently shaken for 3 min to ensure sufficient cell lysis. After 10 min of standing to allow the luminescence signal to be stable, the luminescence signal was read with EnVision (Perkin Elmer).
The inhibition percentage of the compound against Hep3B cell proliferation could be calculated with the following formula: Inhibition percentage=100−100*(signalcompound−signalnegative control)/(signalpositive control−signalnegative control)
The IC50 value of the compound was calculated by the following formula, from 8 concentration points, with XLfit (ID Business Solutions Ltd., UK): Y=Bottom+(Top−Bottom)/(1+10^((Log IC50−X)*slope factor))
as §4

[3] = tested on: FGF19/FGFR4-overexpressed Hep3B hepatocellular carcinoma (HCC) xenograft tumors; assay type: in vivo; settings: for TGI value / mean tumor size: day 18
Description: Data points represent group mean, error bars represent standard error of the mean (SEM). *P<0.05, **P<0.01, ***P<0.001, ****P<0.0001, NS P>0.05 vs vehicle group.
The relative change of body weights (% RCBW) was calculated based on the following formula: RCBW (%)=(BWi−BW0)/BW0×100%, BWi was the bodyweight on the day of dosing and BW0 was the bodyweight on the first day of administration. Data points represent percent group mean change in BW. Error bars represent standard error of the mean (SEM).
Dosing was initiated on day 0 and effects on tumor growth were evaluated by measuring percent tumor growth inhibition (TGI) at the end of the study. Tolerability was assessed by body weight loss, lethality, and clinical signs of adverse treatment-related side effects. Tumor volumes and body weights were measured twice per week in the administration period. The percentage of TGI was determined on day 18 of the study. The difference between the mean values of tumor volume in treatment and vehicle groups was analyzed for significance using one-way ANOVA (followed by Dennett's test) at each time point and a P<0.05 was considered to be statistically significant.

[4] = 100 mg/kg BID for 18 days, oral

Sequence of human recombinant FGFR1 catalytic structural domain protein (P11362 other isoform, or with tags, fused parts or gaps): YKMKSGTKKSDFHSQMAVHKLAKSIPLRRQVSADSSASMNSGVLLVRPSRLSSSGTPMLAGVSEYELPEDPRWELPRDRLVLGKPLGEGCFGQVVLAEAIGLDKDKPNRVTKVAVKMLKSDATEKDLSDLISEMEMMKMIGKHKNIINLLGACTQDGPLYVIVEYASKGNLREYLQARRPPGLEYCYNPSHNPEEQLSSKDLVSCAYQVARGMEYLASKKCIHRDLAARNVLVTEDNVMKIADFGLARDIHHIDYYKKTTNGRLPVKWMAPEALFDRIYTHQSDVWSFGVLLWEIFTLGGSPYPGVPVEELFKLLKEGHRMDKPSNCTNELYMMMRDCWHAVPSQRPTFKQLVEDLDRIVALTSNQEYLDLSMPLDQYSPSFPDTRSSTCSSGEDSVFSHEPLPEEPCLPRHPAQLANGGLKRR

Row | Structure (SMILES) | IC50 [1] | IC50 [2] | IC50 (Hep3B cells) | also measured
1 | CN1CCN(Cc2ccc(N(C)C(=O)Nc3cc(Cl)c(C#N)cn3)nc2C=O)C(=O)C1 [Compound 17, 3-(4-chloro-5-cyanopyrid-2-yl)-1-(6-formyl-5-((4-methyl-2-carbonylpiperazin-1-yl)methyl)pyrid-2-yl)-1-methyl urea] | – | 100 to 1000 nM | – | –
2 | CNC(=O)c1cc(Oc2ccc(NC(=O)Nc3ccc(Cl)c(C(F)(F)F)c3)cc2)ccn1 [sorafenib, reference compound] | – | – | – | antitumor activity (in words) ([3]; 40 mg/kg QD, oral): some antitumor activity
3 | CC(C)Oc1cc(NC(=O)N(C)c2ccc(CN3CCN(C)CC3=O)c(C=O)n2)ncc1C#N [Compound 19, 3-(5-cyano-4-isopropoxypyrid-2-yl)-1-(6-formyl-5-((4-methyl-2-carbonylpiperazin-1-yl)methyl)pyrid-2-yl)-1-methylurea] | – | – | 50 to 100 nM | –
4 | COC[C@@H](C)Oc1cc(NC(=O)N(C)c2ccc(CN3CCN(C)CC3=O)c(C=O)n2)ncc1C#N [Compound 18, (R)-3-(5-cyano-4-((1-methoxyprop-2-yl)oxo)pyrid-2-yl)-1-(6-formyl-5-((4-methyl-2-carbonylpiperazin-1-yl)methyl)pyrid-2-yl)-1-methylurea] | – | – | < 50 nM | TGI value ([3]; 10 mg/kg BID for 18 days, oral): 96.4%; mean tumor size ([3]; 10 mg/kg BID for 18 days, oral): 230 mm^3; TGI value ([3]; 30 mg/kg BID for 18 days, oral): 108.3%; mean tumor size ([3]; 30 mg/kg BID for 18 days, oral): 16 mm^3; TGI value ([3]; 60 mg/kg QD for 18 days, oral): 104.4%; mean tumor size ([3]; 60 mg/kg QD for 18 days, oral): 86 mm^3; TGI value [3, 4]: 109.2%; mean tumor size [3, 4]: 0 mm^3; tolerability by tumor-bearing animals ([3]; all dose levels): well-tolerated; body weight loss during the treatment ([3]; all groups): didn't exhibit significant body weight loss
5 | CC(C)Nc1cc(NC(=O)N(C)c2ccc(CN3CCOCC3=O)c(C=O)n2)ncc1C#N [Compound 10, 3-(5-cyano-4-(isopropylamino)pyrid-2-yl)-1-(6-formyl-5-((3-carbonylmorpholino)methyl)pyrid-2-yl)-1-methylurea] | – | – | 50 to 100 nM | –
6 | CC(C)Nc1cc(NC(=O)N(C)c2ccc(CN3CCN(C)CC3=O)c(C=O)n2)ncc1C#N [Compound 16, 3-(5-cyano-4-(isopropylamino)pyrid-2-yl)-1-(6-formyl-5-((4-methyl-2-carbonylpiperazin-1-yl)methyl)pyrid-2-yl)-1-methylurea] | – | – | < 50 nM | –
7 | COCCNc1cc(NC(=O)N(C)c2nccc(C=O)n2)ncc1C#N [Compound 8, 3-(5-cyano-4-((2-methoxyethyl)amino)pyrid-2-yl)-1-(4-formylpyrimidin-2-yl)-1-methylurea] | > 1000 nM | 100 to 1000 nM | – | –

The next lines start with results.

Row | IC50 [1] | IC50 [2] | IC50 (Hep3B cells) | Structure (SMILES) | also measured
8 | > 1000 nM | < 10 nM | – | COCCOc1cc(NC(=O)N(C)c2cccc(C=O)n2)ncc1C#N [Compound 7, 3-(5-cyano-4-(2-methoxyethoxy)pyrid-2-yl)-1-(6-formylpyrid-2-yl)-1-methylurea] | –
9 | – | – | < 50 nM | COCCOc1cc(NC(=O)N(C)c2ccc(CN3CCOCC3=O)c(C=O)n2)ncc1C#N [Compound 12] | –
10 | > 1000 nM | < 10 nM | – | CC(C)Nc1cc(NC(=O)N(C)c2cccc(C=O)n2)ncc1C#N [Compound 5, 3-(5-cyano-4-(isopropylamino)pyrid-2-yl)-1-(6-formylpyrid-2-yl)-1-methylurea] | –
11 | > 1000 nM | 10 to 100 nM | – | CN(C(=O)Nc1ccc(C#N)cn1)c1cccc(C=O)n1 [Compound 3, 3-(5-cyanopyrid-2-yl)-1-(6-formylpyrid-2-yl)-1-methylurea] | –
12 | > 1000 nM | – | – | COCCNc1cc(NC(=O)N(C)c2cccc(C=O)n2)ncc1C#N [Compound 1, 3-(5-cyano-4-((2-methoxyethyl)amino)pyrid-2-yl)-1-(6-formylpyrid-2-yl)-1-methyl urea] | –
13 | > 1000 nM | < 10 nM | – | CC(C)Oc1cc(NC(=O)N(C)c2cccc(C=O)n2)ncc1C#N [Compound 6, 3-(5-cyano-4-isopropoxypyrid-2-yl)-1-(6-formylpyrid-2-yl)-1-methylurea] | –
14 | > 1000 nM | 100 to 1000 nM | – | CN(C(=O)Nc1cc(Cl)ncn1)c1cccc(C=O)n1 [Compound 2, 3-(6-chloropyrimidin-4-yl)-1-(6-formylpyrid-2-yl)-1-methylurea] | –
15 | – | – | < 50 nM | COCCNc1cc(NC(=O)N(C)c2ccc(CN3CCOCC3=O)c(C=O)n2)ncc1C#N [Compound 9, 3-(5-cyano-4-((2-methoxyethyl)amino)pyrid-2-yl)-1-(6-formyl-5-((3-carbonylmorpholino)methyl)pyrid-2-yl)-1-methylurea] | –

— patent US10590109B2, “Heterocyclic compounds used as FGFR inhibitors” (Nanjing InnoCare Pharma Tech Co., Ltd., priority 2016, dated 2020)
